Results on 5 compounds are retold here after US6169104A, “Di-aryl ethers and their derivatives as anti-cancer agents” (Large Scale Biology Corporation, priority 1998, dated 2001).

A word on the % Inhibition: it is the share of the control response that was lost under treatment. A higher % Inhibition goes with a strong effect. For orientation: IC50 means the concentration that gives 50% inhibition. One may read the inhibition as the drop in the measured response relative to a control, in per cent.

Data set [1] deals with angiogenesis induced by hFGF-B in the CAM. Put plainly: Chick chorioallantoic membrane (CAM) assay, 14C-proline incorporation into collagenous protein. The data set is classed as in vivo, chick embryo. Here is the method:
BTO-964 [methyl 3,5-diiodo-4(4'-methoxyphenoxy) benzaldehyde], and BTO-967 [methyl 3,5-diiodo-4(4'-methoxyphenoxy)-thiobenzoate] were tested in the CAm assay. The endpoint of the CAM assay was a quantiative determination of basement membrane biosynthesis by measuring the incorporation of ^14 C-proline into Type IV collagenous protein.
The CAM assay involves the development of live chick embryos in Petri dishes under special sterile conditions. Therefore, only limited numbers of embryos can be used for evaluation of compounds in a single experiment. BTO-964 and BTO-967 was tested in separate assays. A known angiogenesis inhibitor, 2-methoxyestradiol (2-ME), was used as the positive control, and human fibroblast growth factor (hFGF) was used to induce angiogenesis in the CAM.
For testing, a minimum amount of acetone-methanol (1:1) was added to the test compounds for sterilization. The acetone-methanol mixture was then evaporated to dryness in a sterile hood. The compounds were dissolved in dimethyl sulfoxide (DMSO) first and then diluted with saline containing methylcellulose. The final concentrations were 2% DMSO and 0.5% methylcellulose. all test solutions were added to each CAM in […] aliquots.
Fresh fertile eggs were incubated for three days in a standard egg incubator. On Day 3, eggs were cracked under sterile conditions and embryos were placed in 20×100 mm plastic Petri dishes and cultivated at 37° C. in an embryo incubator with a water reservoir on the bottom shelf. Air was continuously bubbled into the water reservoir by using a small pump so that the humidity in the incubator was kept constant. Observations were made daily to ensure that all embryos were healthy. Dead or unhealthy embryos were removed from the incubator immediately to avoid contamination. On Day 9, a sterile silicone ring cup was placed on each CAM and 0.5 mCi of ^14 C-proline with or without the test compound plus 2.5 ng of hFGF dissolved in saline containing 0.5% methylcellulose was delivered into each ring cup in a sterile hood. 2-ME was tested in parallel to serve as a reference compound. After addition of test materials, the embryos were returned to the incubator and cultivation continued. On Day 12, all embryos were transferred to a cold room at 4-10° C.
Using the procedure outlined in Maragoudakis, et al., (1989) J. Pharm. Exp. Ther. 251:679-682, the embryos were placed on ice and a piece of CAM 10 mm in diameter was cut off under each ring cup and placed in a separate tube. To each tube was added 1.0 ml of phosphate-buffered saline (PBS, pH 7.3) containing 0.11 mg cycloheximide and 0.17 mg dipyridyl. The tubes were placed in a boiling water bath for 10 min and then cooled to room temperature. The PBS in each tube was discarded after centrifugation at 3000×G for 10 min. The CAM residue was washed once with 3 ml of 15% TCA and then three times with 3 ml of 5% TCA. Centrifugation was carried out as described above between each washing. At this point all non-protein bound radioactivity was removed, and the CAM containing the newly synthesized ^14 C-collagenous protein was suspended in 0.9 ml of 0.1 N NaOH and 1.1 ml of HEPES buffer at pH 7.4. The pH of the sample was neutralized with 0.8 N HCl, using phenol red as indicator.
To digest the ^14 C-collagenous protein, 7.5 units of collagenase and 500 nmol of calcium chloride in […] of HEPES buffer was added to the above samples, and mixtures were incubated at 37° C. for 4 h. The reaction was stopped by adding 1.0 ml of 20% TCA containing 5 mg of tannic acid into each tube. After vortex mixing, the samples were centrifuged at 3000×G for 10 min. An aliquot of the clear supernatant was taken for scintillation counting to quantitate the radiolabeled tripeptides corresponding to basement membrane collagen and other collagenous materials synthesized by the CAM from ^14 C-proline. The CAM pellets in each tube were solubilized in 0.5 ml of 1.0 N NaOH by boiling in a water bath for 5 min. […]

The next data set has as its system MDA MB 231 (breast). Put plainly: In vitro cytotoxicity screen, alamar Blue assay. The data set is classed as cell-based. To be noted: Homo sapiens. Here is the method: (§1) Human tumor cell lines were exposed continuously to varying concentrations of test agents, i.e., BTO-956, BTO-964, BTO966 and BTO-967) and the viability of the cells was measured at set time points (1, 3, and 7 days) using the alamar Blue™ assay. […] This fluorescence can be measured with a fluorimeter, whereby the signal is directly proportional to cell number.
(§2) Various tumor cell lines of human origin representing a wide diversity of cancer pheno- and genotypes were exposed in vitro to the agents to evaluate the drug's effective range. Tumor lines screened included MDA MB 231 (breast), MCF-7 (breast), MDA MB 468 (breast), Siha (squamous cell carcinoma), A549 (non-small cell lung), HL-60 (leukemia), Ovcar-3 (ovarian). The test agents were prepared in serial dilutions from 10 mM stock solutions in DMSO yielding a 66-fold dose range of 20 μM, 10 μM, 3 μM, 1 μM and 0.3 μM concentrations. In each case, cells were maintained at 37° C. under 5 percent CO2 in air. All cell lines were incubated in Dulbecco's modified Eagle medium (DMEM) supplemented with 10% heat-inactivated fetal bovine serum and graded doses of BTO-956, 964, 966, or 967. 5-Fluorouracil (5-FU) was included as a positive control in experiments with two of the cell lines. The experiments were conducted in 96-well tissue culture plates (Falcon) with an initial seeding density of 1000 cells per well in 250 μl aliquots. The next day, medium was replaced with 100 μl of drug dilutions in triplicate.
(§3) After a 7 day exposure to the various agents, the alamarBlue dye was diluted to 20% in DMEM, and 100 μl was added to each well. The cells were incubated for 8 hours until obvious color changes indicated sufficient amounts of reduced dye for quantitation. Relative cell number was evaluated by florimetry on a Millipore 2300 CytoFluor fluorescence measurement system. Measurements were taken directly from 96-well plates after excitation at 560 nm with concomitant emission at 590 nm.
A general note: Alamar Blue is a resazurin reagent that responds to reducing activity.

Data set [2] deals with A549 (non-small cell lung). Put plainly: In vitro cytotoxicity screen, alamar Blue assay. To be noted: Homo sapiens. The data set is classed as cell-based. The method, then: as §1, §2, §3
Data set [3] has as its system TNF-α mRNA. Put plainly: cells. To be noted: Mus musculus, Macrophage, 3 h, read-out: inhibition of TNF-α mRNA accumulation.
Experimental: (§4) The murine macrophage PU5-1.8 cell line are purchased from the American Type Culture Collection (ATCC, Rockville, Md.). Cells are grown in DMEM medium supplemented with 100 mM sodium pyruvate, 0.1 mM nonessential amino acids, 2 mM glutamine and 5 % fetal bovine serum (Life Technologies, Staten Island, N.Y.). Cells are maintained in a humidified atmosphere of 5% CO2 -95% air at 37° C. Cells are passaged twice weekly by firmly tapping the side of the flask to dislodge the adherent cells. Both nonadherent and adherent cells are passaged. Exponentially growing cells are seeded at 5×10^5 /mL, 4 mL per 60-mm dish 24 h prior to the experiment. Test compounds are delivered in 1 mL volumes of the medium added to each dish at the start of the experiment. All dishes are incubated at 37° C. in 5% CO2 -95% air for 3 h.
(§5) The Tumor Necrosis Factor (TNF-α) cDNA is obtained from the ATCC (Rockville, Md.). [α-^32 P]-dCTP (250 μCi) and nylon membranes (Hybond N) are obtained from Amersham (Arlington Heights, Ill.). […] Lipopolysaccharide (LPS) from Escherichia coli is purchased from DIFCO Laboratories (Detroit, Mich.). All plastic supplies are purchased from VWR Scientific products (San Francisco, Calif.). […]
(§6) Hybridized bands are quantified by analyzing the images obtained by using a video densitometer (Applied Imaging Corporation, Santa Clara, Calif.). […]
The subject of data set [4] is TNF-α mRNA. To be noted: 10 μM, without LPS.
Experimental: as §4, §5, §6
For data set [5], the system named is Human leukemia (HL60) cells. Put plainly: In vitro metabolism in human leukemia cells with and without rat liver S9. The following applies: 4 hr incubation with vs without rat liver S9, cells counted 3 days later (FIG. 2). The data set is classed as cell-based. The method, then:
FIG. 2 illustrates the in vitro metabolism of BTO-956, 964, 966, and 967 in human leukemia cells. In this experiments, human leukemia cells (HL60) were incubated for 4 hours in the presence of BTO-956, BTO-964, BTO-966 or BTO-967, with (closed symbols) and without (open symbols) rat liver microsome fraction S9. Following the 4 hr exposure to drug and S9, the cells were rinsed and replated at a density of 2×10^5 cells per ml, and counted 3 days later.
To test for either of these possibilities, the compounds, i.e., BTO-956, BTO-964, BTO-966 and BTO-967, were incubated with a microsomal enzyme fraction, referred to as S9.
Human leukemia (HL60) cells were used to evaluate drug metabolism. Exposure to the test article was performed in the presence and absence of S9, prepared from the liver of adult male rats given a single intraperitoneal injection of Arachlor 1254 (500 mg/kg). The S9 consisted of the 9000×G supernatant of liver homogenized in 0.25 M sucrose-100 mM phosphate buffer (pH 7.4) (Molecular Toxicology, Inc.). Cofactors were 1 mM NADP and 5 mM sodium isocitrate. On the day of exposure, cultures of cells, with or without the metabolism mixture, were incubated for 4 hours in RPMI containing 5% FBS and graded doses of BTO956, 964, 966, or 967. The test agents were prepared in serial dilutions from 10 mM stock solutions in DMSO yielding a dose range 100 μM, 50 μM, 25 μM, 10 μM and 5 μM concentrations and a final DMSO concentration of 1%. In each case, cells were maintained at 37° C. under 5 percent CO2 in air. The experiments were conducted in 6-well tissue culture plates (Falcon) with an initial seeding density of 2×10^6 cells per well in 2 ml aliquots. The test compounds were added immediately to the medium in duplicate cultures. Treatment solution was removed by a series of low-speed centrifugations to pellet the cells, followed by removal of the supernatant and resuspension of cells in fresh RPMI containing 10% FBS.

Another data set concerns Ovcar-3 (ovarian). Put plainly: In vitro cytotoxicity screen, alamar Blue assay. It counts as cell-based. The following applies: Homo sapiens, 168 h, 7 days post exposure. The method, then:
as §1, §2, §3

In data set [6] the test system is Siha (squamous cell carcinoma). Put plainly: In vitro cytotoxicity screen, alamar Blue assay. The data set is classed as cell-based. To be noted: Homo sapiens, 168 h, 7 days post exposure. The method, then: as §1, §2, §3
The test system of a further data set is MDA MB 468 (breast). Put plainly: In vitro cytotoxicity screen, alamar Blue assay. To be noted: Homo sapiens, 168 h, 7 days post exposure. The data set is classed as cell-based. Here is the method: as §1, §2, §3
In another data set the test system is MCF-7 (breast). Put plainly: In vitro cytotoxicity screen, alamar Blue assay. It counts as cell-based. To be noted: Homo sapiens, MCF7, 168 h, 7 days post exposure. Here is the method:
as §1, §2, §3

Setting [7] is: 168 h, MDA MB 231, 7 days post exposure, read-out: IC50.
The mark [8] stands for this setting: 168 h, A549, 7 days post exposure, read-out: IC50.

Like-named read-outs stand apart in the source and are kept apart here.

With `COc1cc2c(cc1O)CC[C@@H]1[C@@H]2CC[C@]2(C)[C@@H](O)CC[C@@H]12` [2-Methoxyestradiol, 2-methoxyestradiol, reference compound], the “% Inhibition” value in [1] (8.3 μg/CAM, BTO-964 experiment) is reported as 6%; in [1] (8.3 μg/CAM, BTO-967 experiment), 9%; in data set [1] (25 μg/CAM, BTO-964 experiment), 35%; in data set [1] (25 μg/CAM, BTO-967 experiment), 20%; in data set [1] (75 μg/CAM, BTO-964 experiment) it was 38%; in [1] (75 μg/CAM, BTO-967 experiment), 38%. Also, the “14C-Proline Incorporated into Collagenous Protein (cpm/mg protein) (mean ± S.E.)” value in data set [1] (8.3 μg/CAM, BTO-964 experiment, control 11200 ± 829) came to 10499 ± 1372 cpm/mg_protein; in data set [1] (8.3 μg/CAM, BTO-967 experiment, control 6300 ± 696), 5711 ± 1469 cpm/mg_protein; in data set [1] (25 μg/CAM, BTO-964 experiment, control 11200 ± 829), 7303 ± 1424 cpm/mg_protein; in data set [1] (25 μg/CAM, BTO-967 experiment, control 6300 ± 696), 5068 ± 1609 cpm/mg_protein; in data set [1] (75 μg/CAM, BTO-964 experiment, control 11200 ± 829) it was 6984 ± 1022 cpm/mg_protein; in [1] (75 μg/CAM, BTO-967 experiment, control 6300 ± 696) it was 3875 ± 891 cpm/mg_protein.

On to `O=c1[nH]cc(F)c(=O)[nH]1` [5-FU, 5-Fluorouracil, reference compound], for which the IC50 in the data set on MDA MB 231 (breast) (MDA-MB-231, 168 h) worked out at 10 µM; in data set [2] (A549, 168 h), 5.5 µM.

For `COc1cc2c(c(OC)c1OC)-c1ccc(OC)c(=O)cc1[C@@H](NC(C)=O)CC2` [colchicine, Colchicine], the inhibition at 10 µM in the data set with TNF-α mRNA [3] stood at 68%. For the same compound, the “effect on TNF-α mRNA expression” value with TNF-α mRNA [4] is “no effect”.

For the compound `COCc1cc(I)c(Oc2ccc(OC)cc2)c(I)c1` [BTO-966, 3,5-diiodo-4-(4'-methoxyphenoxy)benzyl methyl ether], in data set [5], the “effect of metabolism by S9 on activity” value is “activated to more cytotoxic products”. In addition, the IC50 with Ovcar-3 (ovarian) was 6.9 µM; in the data set on MDA MB 231 (breast) (setting [7]), 10 µM; in data set [6], greater than 20000 nM; in data set [2] (setting [8]) it was greater than 30 µM; in the data set with MDA MB 468 (breast), 7.5 µM; in the data set on MCF-7 (breast) it was 7 µM.

In the case of `COC(=O)c1cc(I)c(Oc2ccc(OC)cc2)c(I)c1` [BTO-956, methyl 3,5-diiodo-4-(4'-methoxyphenoxy)benzoate], the “effect of metabolism by S9 on activity” value in data set [5] was “metabolized within the 4-hr incubation period to an inactive form”. Further, the IC50 was less than 0.3 µM with Ovcar-3 (ovarian); 10 µM in the data set with MDA MB 231 (breast) (setting [7]); 500 nM in data set [6]; 4 µM in [2] (setting [8]); 0.5 µM in the data set with MDA MB 468 (breast); 5 µM in the data set with MCF-7 (breast).
